Results taken from PubChem BioAssay AID1963451 (Molecular Pharmacology Branch, DTP, NCI, 2024).

Test system: 521955-158-R6-J3-PDC complex spheroid growth, % test/control
Experiment: Anticancer human tumor 521955-158-R6-J3-PDC patient-derived pancreatic carcinoma cell line growth inhibition [Asc]
Details: for IC50: curve of first compound; for viability, T/C: stronger effect = lower value; active = viability on the fitted dose curve at most 10% of control; inactive = the rest
Summary of the method: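 Concentration series start at each agent's clinical Cmax, or at 10 microM when none is established, and drop in half-log steps; agents are applied alone or together to complex spheroids built with HUVEC and hMSC.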

[1] = second compound 0.0316 µM, first compound 0.0316 µM
[2] = second compound 0.0316 µM, first compound 0.1 µM
[3] = second compound 0.0316 µM, first compound 0.316 µM
[4] = second compound 0.0316 µM, first compound 1 µM
[5] = second compound 0.1 µM, first compound 0.0316 µM
[6] = second compound 0.1 µM, first compound 0.1 µM
[7] = second compound 0.1 µM, first compound 0.316 µM
[8] = second compound 0.1 µM, first compound 1 µM
[9] = second compound 0.316 µM, first compound 0.0316 µM
[10] = second compound 0.316 µM, first compound 0.1 µM
[11] = second compound 0.316 µM, first compound 0.316 µM
[12] = second compound 0.316 µM, first compound 1 µM
[13] = second compound 1 µM, first compound 0.0316 µM
[14] = second compound 1 µM, first compound 0.1 µM
[15] = second compound 1 µM, first compound 0.316 µM
[16] = second compound 1 µM, first compound 1 µM
[17] = second compound 3.16 µM, first compound 0.0316 µM
[18] = second compound 3.16 µM, first compound 0.1 µM
[19] = second compound 3.16 µM, first compound 0.316 µM
[20] = second compound 3.16 µM, first compound 1 µM
[21] = second compound 10 µM, first compound 0.0316 µM
[22] = second compound 10 µM, first compound 0.1 µM
[23] = second compound 10 µM, first compound 0.316 µM
[24] = second compound 10 µM, first compound 1 µM
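Note: spheroids exposed to compounds for 7 days.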
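Throughout, for viability, T/C: 100% = DMSO vehicle control wells.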

C#Cc1c(F)ccc2cc(O)cc(-c3ncc4c(N5CC6CCC(C5)N6)nc(OCC56CCCN5CC(F)C6)nc4c3F)c12 (centres undefined) + Cc1c(S(C)(=O)=O)c(-c2cc(F)cc(N3CCN(c4ccc(NS(=O)(=O)c5ccc(NC(CCN6CCC(C(=O)OCCCP(=O)(O)O)CC6)CSc6ccccc6)c(S(=O)(=O)C(F)(F)F)c5)cc4)CC3)c2)c(-c2ccc(Cl)cc2)n1C(C)C
inactive: viability, T/C [1] 49.8% | viability, T/C [2] 44.9% | viability, T/C [3] 23.1% | viability, T/C [4] 24% | viability, T/C (second compound 0.0316 µM, first compound 3.16 µM) 18.4% | viability, T/C (second compound 0.0316 µM, first compound 10 µM) 15.9% | viability, T/C [5] 46.2% | viability, T/C [6] 31.1% | viability, T/C [7] 23.3% | viability, T/C [8] 18.4% | viability, T/C (second compound 0.1 µM, first compound 3.16 µM) 17.8% | viability, T/C (second compound 0.1 µM, first compound 10 µM) 17.1% | viability, T/C [9] 31.6% | viability, T/C [10] 34.9% | viability, T/C [11] 15.9% | viability, T/C [12] 15.6% | viability, T/C (second compound 0.316 µM, first compound 3.16 µM) 11.6% | viability, T/C [13] 16.1% | viability, T/C [14] 15.3% | viability, T/C [15] 11.9% | viability, T/C [17] 12.6% | viability, T/C [18] 11.4%
< 0.0316 µM: IC50 (second compound 0.0316 µM) | IC50 (second compound 0.1 µM) | IC50 (second compound 0.316 µM) | IC50 (second compound 1 µM) | IC50 (second compound 3.16 µM) | IC50 (second compound 10 µM)
active: viability, T/C (second compound 0.316 µM, first compound 10 µM) 9.78% | viability, T/C [16] 9.24% | viability, T/C (second compound 1 µM, first compound 3.16 µM) 7.76% | viability, T/C (second compound 1 µM, first compound 10 µM) 7.16% | viability, T/C [19] 7.77% | viability, T/C [20] 7.76% | viability, T/C (second compound 3.16 µM, first compound 3.16 µM) 6.82% | viability, T/C (second compound 3.16 µM, first compound 10 µM) 3.79% | viability, T/C [21] 8.21% | viability, T/C [22] 6.93% | viability, T/C [23] 5% | viability, T/C [24] 5.16% | viability, T/C (second compound 10 µM, first compound 3.16 µM) 3.49% | viability, T/C (second compound 10 µM, first compound 10 µM) 3.88%

CNC(C)C(=O)NC1CN(S(=O)(=O)c2cccc(S(=O)(=O)N3CCC4CCC(C(=O)NC(c5ccccc5)c5ccccc5)N4C(=O)C(NC(=O)C(C)NC)C3)c2)CCC2CCC(C(=O)NC(c3ccccc3)c3ccccc3)N2C1=O (centres undefined) + Cc1c(S(C)(=O)=O)c(-c2cc(F)cc(N3CCN(c4ccc(NS(=O)(=O)c5ccc(NC(CCN6CCC(C(=O)OCCCP(=O)(O)O)CC6)CSc6ccccc6)c(S(=O)(=O)C(F)(F)F)c5)cc4)CC3)c2)c(-c2ccc(Cl)cc2)n1C(C)C
< 0.00316 µM: IC50 (second compound 1 µM) | IC50 (second compound 3.16 µM) | IC50 (second compound 10 µM)
active: viability, T/C (second compound 10 µM, first compound 0.01 µM) 12% | viability, T/C [21] 8.73% | viability, T/C [22] 9.27% | viability, T/C [23] 10.4% | viability, T/C [24] 6.75%
0.00502 µM: IC50 (second compound 0.316 µM)
> 1 µM: IC50 (second compound 0.0316 µM) | IC50 (second compound 0.1 µM)
inactive: viability, T/C (second compound 0.0316 µM, first compound 0.00316 µM) 101% | viability, T/C (second compound 0.0316 µM, first compound 0.01 µM) 90.1% | viability, T/C [1] 80.1% | viability, T/C [2] 72.5% | viability, T/C [3] 67.3% | viability, T/C [4] 60.4% | viability, T/C (second compound 0.1 µM, first compound 0.00316 µM) 93.4% | viability, T/C (second compound 0.1 µM, first compound 0.01 µM) 64.7% | viability, T/C [5] 57.1% | viability, T/C [6] 56.4% | viability, T/C [7] 51.4% | viability, T/C [8] 55.4% | viability, T/C (second compound 0.316 µM, first compound 0.00316 µM) 57.3% | viability, T/C (second compound 0.316 µM, first compound 0.01 µM) 38.4% | viability, T/C [9] 42.8% | viability, T/C [10] 39.4% | viability, T/C [11] 35.7% | viability, T/C [12] 35.5% | viability, T/C (second compound 1 µM, first compound 0.00316 µM) 31.6% | viability, T/C (second compound 1 µM, first compound 0.01 µM) 23.8% | viability, T/C [13] 29.6% | viability, T/C [14] 19.9% | viability, T/C [15] 25.4% | viability, T/C [16] 21.1% | viability, T/C (second compound 3.16 µM, first compound 0.00316 µM) 14.6% | viability, T/C (second compound 3.16 µM, first compound 0.01 µM) 13% | viability, T/C [17] 16.9% | viability, T/C [18] 14.1% | viability, T/C [19] 12.3% | viability, T/C [20] 13.3% | viability, T/C (second compound 10 µM, first compound 0.00316 µM) 10.6%
